Data reported in the NIST ThermoML archive (doi:10.1021/je100819f).
± gives the expanded uncertainty stated by the source.

Conditions: Crystal; DTA

Which Normal melting temperature does the source give for `O=C1C=CC(=O)N1c1cc(F)c(Br)c(F)c1` [1-(4-bromo-3,5-difluorophenyl)-1H-pyrrole-2,5-dione] here?
Its Normal melting temperature is 197.5 ± 0.7 °C.
